The source of these data is publication PMC6633864, “Intestinal Absorption Profile of Three Polygala Oligosaccharide Esters in Polygalae Radix and the Effects of Other Components in Polygalae Radix on Their Absorption” (Evidence-based Complementary and Alternative Medicine : eCAM, 2019).

Series [1] in a line: Intestinal absorption in vitro by the everted rat gut sac model. It counts as in vitro ADME. As to conditions: n = 5.
Series [2] is described as follows: Drug stability in blank intestinal circulation fluid. Type of series: in vitro ADME, rat. To be noted: 37°C, 3 h. As to the method:
The K–R culture solution was circulated in rat intestines for 3 h. PRE, SA5, SA6, and DISS were dissolved in the blank intestinal circulation fluid at concentrations of 12 mg/ml, 0.050 mg/ml, 0.086 mg/ml, and 0.198 mg/ml, respectively, and incubated at 37°C for 3 h. Aliquots of 1 ml samples were taken out at 0, 0.5, 1, 2, and 3 h after preparation for analysis.

On the set-up of series [3]: method as in PMID 24043590. As to conditions: cited from earlier work.
Setting [4] is: in PRE, high concentration (SA5 0.075, SA6 0.130, DISS 0.296 mg/ml), 180 min.
Setting [5] is: in PRE, low concentration (SA5 0.025, SA6 0.043, DISS 0.099 mg/ml), 180 min.
Where [6] appears, read: monomer, high concentration (SA5 0.075, SA6 0.130, DISS 0.296 mg/ml).
Setting [7] is: monomer, low concentration (SA5 0.025, SA6 0.043, DISS 0.099 mg/ml).

`COc1cc(/C=C/C(=O)OC[C@H]2O[C@H](O[C@]3(CO)O[C@H](CO)[C@@H](O)[C@@H]3OC(=O)/C=C/c3cc(OC)c(O)c(OC)c3)[C@H](O)[C@@H](O)[C@@H]2O)cc(OC)c1O` [DISS, 3,6′-disinapoyl sucrose]: in series [1] (setting [4]), the K a was 0.109 ± 0.010 ^∗∗,## μg·cm^−2·min^−1, the “P (%) percentage of absorption” value worked out at 2.54 ± 0.19% and the P app is reported as 0.61 ± 0.057 ×10^−5cm/s. For the same compound, in series [1] (setting [5]), the K a was 0.036 ± 0.0019 μg·cm^−2·min^−1, the “P (%) percentage of absorption” value is on record as 2.55 ± 0.03% and the P app is 0.61 ± 0.0033 ×10^−5cm/s. For the same compound, in series [1] (setting [6]), the K a is 0.049 ± 0.022 ^∗∗##, μg·cm^−2·min^−1; the “P (%) percentage of absorption” value was determined as 1.18 ± 0.04%; the P app is on record as 0.28 ± 0.079 ×10^−5cm/min. In series [1] (setting [7]), the K a is recorded as 0.015 ± 0.0005 μg·cm^−2·min^−1, the “P (%) percentage of absorption” value stood at 1.13 ± 0.05% and the P app is 0.26 ± 0.068 ×10^−5cm/min. For the same compound, the “stability in the blank intestinal circulation solution (in words)” value in series [2] was “stable at 37 °C for 3 h”. Also, in series [3], the “effect of ATP energy inhibitor sodium azide on absorption” value is recorded as “no effect”; the “effect of P-gp inhibitor cyclosporine A on absorption” value was “no significant effect”; the “effect of paracellular enhancers EDTA and sodium caprate (SC) on Papp” value is recorded as “could increase Papp”.
